Reference: PubChem BioAssay AID256 (DTP/NCI, 2004)
Several values for one entry are separate records, joined by “and”; a condition that tells them apart may be missing. Identical values can stand only once. Toxic doses and inconclusive results are not listed.

Test system: CD2F1 mice, L1210 leukemia ip, survival T/C
Experiment: NCI In Vivo Anticancer Drug Screen. Data for tumor model L1210 Leukemia (intraperitoneal) in CD2F1 (CDF1) mice
Settings: higher = longer survival
Summary of the method: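 Ratio T/C, where T is the treated-group value and C the vehicle-dosed control value, from mice implanted with a transplantable tumor.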

[1] = endpoint: median survival time, dose: 200.0 mg/kg/injection, schedule: Q01DX009 (ip), vehicle: Klucel (hydroxypropylcellulose) (HPC)
[2] = endpoint: mean survival time, dose: 75.0 mg/kg/injection, schedule: Q01DX001 (ip), vehicle: saline
[3] = endpoint: mean survival time, dose: 150.0 mg/kg/injection, schedule: Q01DX001 (ip), vehicle: saline
[4] = endpoint: mean survival time, dose: 50.0 mg/kg/injection, schedule: Q01DX009 (ip), vehicle: saline with Tween-80
[5] = endpoint: mean survival time, dose: 50.0 mg/kg/injection, schedule: Q04DX003 (ip), vehicle: saline with Tween-80
[6] = endpoint: mean survival time, dose: 100.0 mg/kg/injection, schedule: Q01DX009 (ip), vehicle: saline with Tween-80
[7] = endpoint: mean survival time, dose: 100.0 mg/kg/injection, schedule: Q04DX003 (ip), vehicle: saline with Tween-80
[8] = endpoint: mean survival time, dose: 200.0 mg/kg/injection, schedule: Q01DX009 (ip), vehicle: saline with Tween-80
[9] = endpoint: mean survival time, dose: 200.0 mg/kg/injection, schedule: Q04DX003 (ip), vehicle: saline with Tween-80
[10] = endpoint: mean survival time, dose: 100.0 mg/kg/injection, schedule: Q01DX001 (ip), vehicle: saline with Tween-80
[11] = endpoint: mean survival time, dose: 200.0 mg/kg/injection, schedule: Q01DX001 (ip), vehicle: saline with Tween-80
[12] = endpoint: mean survival time, dose: 400.0 mg/kg/injection, schedule: Q01DX001 (ip), vehicle: saline with Tween-80
[13] = endpoint: mean survival time, dose: 400.0 mg/kg/injection, schedule: Q04DX003 (ip), vehicle: saline with Tween-80
[14] = endpoint: mean survival time, dose: 100.0 mg/kg/injection, schedule: Q01DX009 (ip), vehicle: saline
[15] = endpoint: mean survival time, dose: 200.0 mg/kg/injection, schedule: Q01DX009 (ip), vehicle: saline
[16] = endpoint: mean survival time, dose: 400.0 mg/kg/injection, schedule: Q01DX009 (ip), vehicle: saline
[17] = endpoint: mean survival time, dose: 25.0 mg/kg/injection, schedule: Q04DX003 (ip), vehicle: saline with Tween-80
[18] = endpoint: mean survival time, dose: 100.0 mg/kg/injection, schedule: Q04DX003 (ip), vehicle: Klucel (hydroxypropylcellulose) (HPC)
[19] = endpoint: mean survival time, dose: 200.0 mg/kg/injection, schedule: Q04DX003 (ip), vehicle: Klucel (hydroxypropylcellulose) (HPC)
[20] = endpoint: mean survival time, dose: 25.0 mg/kg/injection, schedule: Q01DX009 (ip), vehicle: saline with Tween-80

Compound: COc1ccc2[nH]c3ccc4cc[n+](CCN5CCC(C6CCN(CC[n+]7ccc8ccc9[nH]c%10ccc(OC)cc%10c9c8c7)CC6)CC5)cc4c3c2c1
- T/C (endpoint: median survival time, dose: 8.0 mg/kg/injection, schedule: Q01DX009 (ip), vehicle: water): 172 % of control and 246 % of control
- T/C (endpoint: median survival time, dose: 16.0 mg/kg/injection, schedule: Q01DX009 (ip), vehicle: water): 160 % of control and 185 % of control
- T/C (endpoint: median survival time, dose: 16.25 mg/kg/injection, schedule: Q01DX009 (ip), vehicle: water): 172 % of control
- T/C (endpoint: median survival time, dose: 32.0 mg/kg/injection, schedule: Q01DX009 (ip), vehicle: water): 119 % of control
- T/C (endpoint: median survival time, dose: 32.5 mg/kg/injection, schedule: Q01DX009 (ip), vehicle: water): 197 % of control
- T/C [1]: 91 % of control and 102 % of control

Compound: CNC1CCCCCC1
- T/C [2]: 101 % of control
- T/C [3]: 101 % of control

Compound: CCOP(=O)(Nc1ccc(F)cc1)OCC
- T/C (endpoint: mean survival time, dose: 50.0 mg/kg/injection, schedule: Q01DX001 (ip), vehicle: carboxymethylcellulose (CMC)): 106 % of control
- T/C (endpoint: mean survival time, dose: 100.0 mg/kg/injection, schedule: Q01DX001 (ip), vehicle: carboxymethylcellulose (CMC)): 96 % of control
- T/C (endpoint: mean survival time, dose: 200.0 mg/kg/injection, schedule: Q01DX001 (ip), vehicle: carboxymethylcellulose (CMC)): 100 % of control
- T/C (endpoint: mean survival time, dose: 400.0 mg/kg/injection, schedule: Q01DX001 (ip), vehicle: carboxymethylcellulose (CMC)): 102 % of control

Compound: C=CCNC(=S)NCCO
- T/C [4]: 97 % of control
- T/C [5]: 111 % of control
- T/C [6]: 100 % of control
- T/C [7]: 103 % of control
- T/C [8]: 94 % of control
- T/C [9]: 103 % of control

Compound: SCc1ccccc1
- T/C [10]: 110 % of control
- T/C [11]: 98 % of control
- T/C [12]: 105 % of control

Compound: CCOC(=O)Nc1c(C)noc1NC(C)=O
- T/C [6]: 95 % of control
- T/C [7]: 94 % of control
- T/C [8]: 95 % of control
- T/C [9]: 94 % of control
- T/C (endpoint: mean survival time, dose: 400.0 mg/kg/injection, schedule: Q01DX009 (ip), vehicle: saline with Tween-80): 104 % of control
- T/C [13]: 94 % of control

Compound: CC1(C)OCC(COCc2ccccc2)O1 (stereo not given)
- T/C [14]: 96 % of control
- T/C [15]: 91 % of control
- T/C [16]: 96 % of control

Compound: CNC(C)COc1ccccc1 (stereo not given)
- T/C [7]: 86 % of control

Compound: C=C1CC(Cc2ccccc2)OC1=O (stereo not given)
- T/C (endpoint: mean survival time, dose: 25.0 mg/kg/injection, schedule: Q01DX001 (ip), vehicle: saline with Tween-80): 96 % of control
- T/C (endpoint: mean survival time, dose: 50.0 mg/kg/injection, schedule: Q01DX001 (ip), vehicle: saline with Tween-80): 101 % of control
- T/C [10]: 101 % of control

Compound: C1CC[N-]CC1.C1CC[N-]CC1.O=C(O)CC(=O)O.[Pt+2]
- T/C (endpoint: mean survival time, dose: 3.13 mg/kg/injection, schedule: Q04DX003 (ip), vehicle: saline with Tween-80): 100 % of control
- T/C (endpoint: mean survival time, dose: 6.25 mg/kg/injection, schedule: Q04DX003 (ip), vehicle: saline with Tween-80): 97 % of control
- T/C (endpoint: mean survival time, dose: 12.5 mg/kg/injection, schedule: Q04DX003 (ip), vehicle: saline with Tween-80): 100 % of control
- T/C [17]: 100 % of control
- T/C [5]: 97 % of control
- T/C [7]: 100 % of control
- T/C [9]: 96 % of control

Compound: O=C(OCc1ccccc1)c1cc([N+](=O)[O-])c(Cl)c([N+](=O)[O-])c1
- T/C [10]: 101 % of control
- T/C [6]: 97 % of control
- T/C [11]: 97 % of control
- T/C [8]: 98 % of control
- T/C [12]: 98 % of control

Compound: Nc1n[n+](-c2ccc(Cl)cc2)no1
- T/C (endpoint: mean survival time, dose: 1.56 mg/kg/injection, schedule: Q01DX009 (ip), vehicle: water): 92 % of control
- T/C (endpoint: mean survival time, dose: 3.12 mg/kg/injection, schedule: Q01DX009 (ip), vehicle: water): 97 % of control and 112 % of control
- T/C (endpoint: mean survival time, dose: 6.25 mg/kg/injection, schedule: Q01DX009 (ip), vehicle: water): 93 % of control and 96 % of control
- T/C (endpoint: mean survival time, dose: 12.5 mg/kg/injection, schedule: Q01DX009 (ip), vehicle: water): 95 % of control and 98 % of control
- T/C (endpoint: mean survival time, dose: 25.0 mg/kg/injection, schedule: Q01DX009 (ip), vehicle: water): 103 % of control and 104 % of control
- T/C (endpoint: mean survival time, dose: 50.0 mg/kg/injection, schedule: Q01DX009 (ip), vehicle: water): 114 % of control

Compound: NC(CCc1cc(O)ccc1O)C(=O)O (stereo not given)
- T/C [14]: 98 % of control
- T/C [15]: 98 % of control
- T/C [16]: 102 % of control

Compound: CCN(CCO)c1ccc(N)cc1C
- T/C (endpoint: mean survival time, dose: 1.56 mg/kg/injection, schedule: Q01DX009 (ip), vehicle: saline): 100 % of control
- T/C (endpoint: mean survival time, dose: 1.56 mg/kg/injection, schedule: Q04DX003 (ip), vehicle: saline): 101 % of control
- T/C (endpoint: mean survival time, dose: 3.13 mg/kg/injection, schedule: Q01DX009 (ip), vehicle: saline): 100 % of control
- T/C (endpoint: mean survival time, dose: 3.13 mg/kg/injection, schedule: Q04DX003 (ip), vehicle: saline): 104 % of control
- T/C (endpoint: mean survival time, dose: 6.25 mg/kg/injection, schedule: Q01DX009 (ip), vehicle: saline): 101 % of control
- T/C (endpoint: mean survival time, dose: 6.25 mg/kg/injection, schedule: Q04DX003 (ip), vehicle: saline): 97 % of control

Compound: CC(C)=CC(=O)CC(O)(C(F)(F)F)C(F)(F)Cl (stereo not given)
- T/C [18]: 98 % of control
- T/C [19]: 93 % of control

Compound: Cc1c(-c2ccc(C3CCCCC3)cc2)nc2ccc(F)cc2c1C(=O)O
- T/C (endpoint: median survival time, dose: 12.5 mg/kg/injection, schedule: Q01DX005 (ip), vehicle: Klucel (hydroxypropylcellulose) (HPC)): 109 % of control
- T/C (endpoint: median survival time, dose: 12.5 mg/kg/injection, schedule: Q01DX005 (ip), vehicle: sodium bicarbonate): 114 % of control and 104 % of control
- T/C (endpoint: median survival time, dose: 25.0 mg/kg/injection, schedule: Q01DX005 (ip), vehicle: Klucel (hydroxypropylcellulose) (HPC)): 110 % of control
- T/C (endpoint: median survival time, dose: 25.0 mg/kg/injection, schedule: Q01DX005 (ip), vehicle: sodium bicarbonate): 122 % of control and 108 % of control
- T/C (endpoint: median survival time, dose: 50.0 mg/kg/injection, schedule: Q01DX005 (ip), vehicle: sodium bicarbonate): 123 % of control and 124 % of control and 104 % of control
- T/C (endpoint: median survival time, dose: 100.0 mg/kg/injection, schedule: Q01DX005 (ip), vehicle: sodium bicarbonate): 120 % of control and 109 % of control
- T/C (endpoint: median survival time, dose: 100.0 mg/kg/injection, schedule: Q01DX009 (ip), vehicle: Klucel (hydroxypropylcellulose) (HPC)): 182 % of control
- T/C [1]: 183 % of control
- T/C (endpoint: median survival time, dose: 400.0 mg/kg/injection, schedule: Q01DX009 (ip), vehicle: Klucel (hydroxypropylcellulose) (HPC)): 89 % of control

Compound: CC1=C2CCOC2=Nc2ccccc2O1
- T/C [2]: 109 % of control
- T/C [3]: 104 % of control
- T/C (endpoint: mean survival time, dose: 300.0 mg/kg/injection, schedule: Q01DX001 (ip), vehicle: saline): 97 % of control

Compound: CCCCCCCCCCCCCCCCCC(=O)NNCCO
- T/C [6]: 89 % of control
- T/C [7]: 94 % of control
- T/C [8]: 89 % of control
- T/C [9]: 93 % of control
- T/C [13]: 91 % of control

Compound: Cc1ccc2cc(O)ccc2c1
- T/C [4]: 97 % of control
- T/C [6]: 98 % of control

Compound: CC1(C2CCN(Cc3ccccc3)CC2)OCCO1
- T/C [2]: 101 % of control
- T/C [3]: 97 % of control

Compound: CCOC(=O)c1cc(C)[nH]c(=O)c1C#N
- T/C [20]: 93 % of control
- T/C [17]: 102 % of control
- T/C [4]: 96 % of control
- T/C [5]: 102 % of control
- T/C [6]: 93 % of control
- T/C [7]: 98 % of control

Compound: CC(=O)Nc1ccc(C)cc1C
- T/C [18]: 94 % of control
- T/C [19]: 103 % of control
- T/C (endpoint: mean survival time, dose: 400.0 mg/kg/injection, schedule: Q04DX003 (ip), vehicle: Klucel (hydroxypropylcellulose) (HPC)): 97 % of control

Compound: O=C(Nc1nc2c(ccc3ccccc32)s1)Nc1ccccc1F
- T/C [4]: 94 % of control
- T/C [6]: 97 % of control
- T/C [8]: 105 % of control

Compound: CCCCN=Cc1ccccc1O.CCCCN=Cc1ccccc1O.[Cr]
- T/C [10]: 93 % of control

Compound: CC(C)c1ccccc(=O)c1O.CC(C)c1ccccc(=O)c1O.[Cu]
- T/C (endpoint: mean survival time, dose: 6.25 mg/kg/injection, schedule: Q01DX009 (ip), vehicle: saline with Tween-80): 102 % of control
- T/C (endpoint: mean survival time, dose: 12.5 mg/kg/injection, schedule: Q01DX009 (ip), vehicle: saline with Tween-80): 100 % of control
- T/C [20]: 103 % of control

Compound: CN(C)P1(=O)NCC(C(C)(C)C)CO1 (stereo not given)
- T/C (endpoint: mean survival time, dose: 15.63 mg/kg/injection, schedule: Q01DX001 (ip), vehicle: water): 97 % of control
- T/C (endpoint: mean survival time, dose: 31.25 mg/kg/injection, schedule: Q01DX001 (ip), vehicle: water): 97 % of control
- T/C (endpoint: mean survival time, dose: 62.5 mg/kg/injection, schedule: Q01DX001 (ip), vehicle: water): 97 % of control
- T/C (endpoint: mean survival time, dose: 125.0 mg/kg/injection, schedule: Q01DX001 (ip), vehicle: water): 97 % of control
- T/C (endpoint: mean survival time, dose: 250.0 mg/kg/injection, schedule: Q01DX001 (ip), vehicle: water): 101 % of control
